# Results: patent US20040219201A1, “Tempamine compositions and methods of use” (priority 2001, published 2004)
# What was measured:
# [1] = n-octanol/water partition coefficient (Kp); assay type: physicochemical
# Experimental: Free tempamine gives well-defined peaks in both solutions of n-octanol and water. The peak area (or height) is proportional to the tempamine concentrations in the aqueous phase and in n-octanol. The tempaamine concentration in both solvents was determined from a calibration curve of temparnine in each of the two solvents n-octanol and water.
# A. Partition Coefficients The n-octanol/water partition coefficient, Kp, of tempamine was measured to estimate its phase distribution in the liposomes, according to the procedure previously described (Samuni, A. et al., Free-Radic Biol Med., 22:1165 (1997)). Partition coefficients were measured at various pH levels (pH 4.0, 7.0, and 10.6), at tempamine concentrations of 2.0 mM and 20.0 mM and at different concentrations of ammonium sulfate (20-400 mM). The volume of each phase was 1 ml.
# [2] = Pharmacokinetics and biodistribution in C26 tumor-bearing BALB/c mice; assay type: in vivo
# Experimental: The pharmacokinetics and biodistribution of liposome-entrapped tempamine and of free tempamine were determined in healthy and in tumor-bearing mice. […] The liposome formulation included a lipid label to allow analysis of the distribution of the liposome lipids. The tempamine levels in blood and tissues were measured using the EPR technique set forth in the Methods section.
# 8 to 12-week-old BALB/c female mice, obtained through the Animal Breeding House of the Hebrew University (Jerusalem, Israel), were used throughout the study. Animals were housed at Hadassah Medical Center with food and water ad libitum. All procedures were in accordance with the standards required by the Institutional Animal Care and Use Cornmittee of the Hebrew University and Hadassah Medical Organization. Each mouse was injected with one inoculum of tumor cells (1×10^6 C26 cells) subcutaneously into the left flank. […] Phospholipid dose was 11 mg (14.7 μmole)/mouse (377 mg (514 μmole)/kg body weight). At 1, 4, 8, 24, and 48 hours after the injection, the animals were anesthetized with ether inhalation, bled by eye enucleation, and immediately sacrificed for removal of liver, lung, spleen, kidney, and tumor. Each time point consisted of 3 mice. Plasma was separated by centrifugation.
# To measure the total tempamine concentration (encapsulated and free) in the organs, the liposomes were solubilized by homogenization in a Polytron homogenizer (Kinematica, Lutzern, Switzerland) in 2% Triton X-100 (1:2, organ:Triton X-100 solution). The homogenized mixture was cooled and heated several times to destroy the lipid membrane (Barenholz, Y., et al., in LIPOSOME TECHNOLOGY, G. Gregoriadis (Ed.), 2nd Edn., Vol. I, CRC Press, Boca Raton, pp. 527-616, (1993)). The plasma samples were mixed 1:1 with 2% Triton X-100 to give the 1% Triton X-100 in the tested sample and also cooled and heated several times. These conditions were effective to achieve a release of all entrapped tempamine from intact liposomes.
# For deterrmination of the total concentration of nitroxide+hydroxylamine, potassium ferricyanide at a final concentration of 2-3 mM (depending on the tested tissue) was added to all the samples (plasma and organ homogenates) to oxidize the hydroxylamine to intact nitroxide.
# From the samples prepared as described above in section F, duplicates of 100 μl were burned in a Sample Oxidizer (Model 307, Packard Instrument Co., Meridien, Conn.) and left overnight in a dark, cool place. The samples were then measured by β-counting (KONTRON Liquid Scintillation Counter).
# [3] = assay type: in vivo; details: free tempamine 1.8 mg/kg, four hours after injection, healthy and arthritic rats
# Experimental: Studies using the AA model are described in Example 6. In this study, AA was induced in male rats by injection of microbacteria in Freund's ajuvavnt. Liposomes containing tempanine were prepared as described in Example 5A by remote loading tempamine against an ammonium sulfate gradient. The liposomes were administered by injection to healthy and arthritic rats 22 days after inducement of AA. At regular time intervals after administration of the liposomes, plasma and tissue samples were taken to determine the biodistribution and pharmacokinetics.
# Adjuvent arthritis (AA) was induced by a single intradermal injection of mycobacteria in mineral oil (Freund's adjuvant). In strains of rats susceptible to adjuvant arthritis, the non-specific primary inflamnmation at the injection site was followed on about the 10th post-injection day by a disseminated polyarthritis or secondary specific inflammation. Lewis strain rats, which are highly susceptible to AA, were injected with 1 mg of Mycobacterium tuberculosis H37Ra (Difco, Detroit, Mich., USA) in Freund's complete adjuvant (FCA) (Difco), subcutaneously at the base of the tail. Maximum swelling of the paw occurred between 20 and 27 days
# Adjuvent (maximum swelling). Tempamine was administered at a dose of 1.8 mg tempamine/kg (10.5 μmol/kg). The phospholipid concentration of the injected liposomes was 42 mg/kg (56 μmol/kg). […]
# [4] = ammonium sulfate 20 mM, TMN 2 μmole
# [5] = ammonium sulfate 20 mM, TMN 20 μmole
# [6] = ammonium sulfate 150 mM, TMN 2 μmole
# [7] = ammonium sulfate 150 mM, TMN 20 μmole
# [8] = ammonium sulfate 400 mM, TMN 2 μmole
# [9] = ammonium sulfate 400 mM, TMN 20 μmole
structure (smiles),measurement,setting,value
"CC1(C)CC(N)CC(C)(C)N1[O] [tempamine, 2,2,6,6-tetramethylpiperidine-4-amino-1-oxyl]","n-octanol/aqueous phase (Kp), pH 7","[1]; ammonium sulfate 0 mM, TMN 20 μmole",0.278
same,"n-octanol/aqueous phase (Kp), pH 4",[1]; [4],0.031
same,"n-octanol/aqueous phase (Kp), pH 7",[1]; [4],0.048
same,"n-octanol/aqueous phase (Kp), pH 10.6",[1]; [4],2.418
same,"n-octanol/aqueous phase (Kp), pH 4",[1]; [5],0.074
same,"n-octanol/aqueous phase (Kp), pH 7",[1]; [5],0.116
same,"n-octanol/aqueous phase (Kp), pH 10.6",[1]; [5],2.386
same,"n-octanol/aqueous phase (Kp), pH 4",[1]; [6],0.024
same,"n-octanol/aqueous phase (Kp), pH 7",[1]; [6],0.055
same,"n-octanol/aqueous phase (Kp), pH 10.6",[1]; [6],2.184
same,"n-octanol/aqueous phase (Kp), pH 4",[1]; [7],0.049
same,"n-octanol/aqueous phase (Kp), pH 7",[1]; [7],0.038
same,"n-octanol/aqueous phase (Kp), pH 10.6",[1]; [7],3.969
same,"n-octanol/aqueous phase (Kp), pH 4",[1]; [8],0.028
same,"n-octanol/aqueous phase (Kp), pH 7",[1]; [8],0.040
same,"n-octanol/aqueous phase (Kp), pH 10.6",[1]; [8],3.005
same,"n-octanol/aqueous phase (Kp), pH 4",[1]; [9],0.046
same,"n-octanol/aqueous phase (Kp), pH 7",[1]; [9],0.034
same,"n-octanol/aqueous phase (Kp), pH 10.6",[1]; [9],4.569
same,concentration at 4 h,"[2]; female, BALB/c, mouse, intravenous, 18 mg/kg, free tempamine, 4 hour time point, read-out: tempamine level in other organs (detection minimum)",< 100 nM
same,AUC,"[2]; female, BALB/c, mouse, plasma, iv, tumor-bearing mice, 18 mg/kg i.v.",170 ± 5 µg·h/mL
same,clearance,"[2]; female, BALB/c, mouse, plasma, iv, tumor-bearing mice, 18 mg/kg i.v., read-out: CL (ml/h), clearance rate (converted)",3.2 mL/h
same,half-life,"[2]; female, BALB/c, mouse, plasma, iv, tumor-bearing mice, 18 mg/kg i.v., read-out: T1/2 (h), blood circulation half-life (converted)",0.15 ± 0.009 h
same,Vd,"[2]; female, BALB/c, mouse, plasma, iv, tumor-bearing mice, 18 mg/kg i.v., read-out: Vss (ml), volume of distribution",55 ± 15.7 mL
same,tempamine in liver and spleen,"[2]; free tempamine, 1 hour and 4 hours after injection",traces
same,half-life of tempamine in plasma,[2]; mouse plasma,several minutes
same,amount of tempamine in plasma and in the tested tissues (detection limit),[3],< 0.5 µM
